Literature values in patent publication US20110052683A1, “PHARMACEUTICAL PREPARATION FOR TREATING CARDIOVASCULAR DISEASE” (priority 2008, published 2011).

Tests used:
[1] = combined administration of pravastatin with verapamil
[2] = combined administration of lovastatin with diltiazem
[3] = combined administration of atorvastatin with diltiazem

CC[C@H](C)C(=O)O[C@H]1C[C@H](O)C=C2C=C[C@H](C)[C@H](CC[C@@H](O)C[C@@H](O)CC(=O)O)[C@H]21 [pravastatin]
increase in AUC [1]: 31% | increase in Cmax [1]: 42%

CC[C@H](C)C(=O)O[C@H]1C[C@@H](C)C=C2C=C[C@H](C)[C@H](CC[C@@H]3C[C@@H](O)CC(=O)O3)[C@H]21 [lovastatin]
change in Cmax and AUC [2]: sudden increase in Cmax and AUC

CC(C)c1c(C(=O)Nc2ccccc2)c(-c2ccccc2)c(-c2ccc(F)cc2)n1CC[C@@H](O)C[C@@H](O)CC(=O)O [atorvastatin]
side effects of combined administration [3]: occurrence of rhabdomyolysis and acute hepatitis
